Earlier results as cited in publication PMC4269829 (Cancer cell, 2014).

What was measured:
[1] = tested on: ALK variant with L1196M mutation; details: crizotinib-resistant L1196M mutation; ref Friboulet et al., 2014
[2] = tested on: ALK variant with I1171T mutation; details: crizotinib-resistant I1171T mutation; ref Friboulet et al., 2014
[3] = tested on: ALK with F1174 mutation; details: ref Friboulet et al., 2014

## Cc1cc(Nc2ncc(Cl)c(Nc3ccccc3S(=O)(=O)C(C)C)n2)c(OC(C)C)cc1C1CCNCC1 [ceritinib]
[1]
  inhibition of ALK variant (in words): inhibit
[2]
  inhibition of ALK variant (in words): inhibit
[3]
  overcoming resistance of ALK mutation (in words): not to overcome resistance
